Measurements reported in patent US20230264009A1, “DISINFECTING CAP KIT FOR LUER ACCESS DEVICES” (SterileCare Inc., priority 2022, published 2023).
Where a name gives a salt, the structure may show the parent alone.

What was measured:
[1] = system: 48-h old biofilms of test organisms; experiment: Rapid biofilm eradication, 2 h exposure; assay type: cell-based; details: alone at the MBEC
Protocol: Determining rapid biofilm eradication by tetrasodium EDTA, ethanol, and chlorhexidine HCl alone and in combination was performed. After biofilm formation, control pegs (n = 6) were removed and analyzed to determine the starting biofilm cell numbers via the drop dilution method. The 48-h old biofilms on the pegs were exposed to different concentrations of test antimicrobials, dissolved in an appropriate growth medium, for two h to evaluate their efficacy alone and in combination. Antimicrobial solutions tested against each organism included each agent alone at the MBEC, double combinations at the FBEC, and triple combinations ranging from 5 to 20% ethanol, 2.5-5 µg/mL chlorhexidine HCl and 1- 3% tetrasodium EDTA. Following treatment, pegs were washed twice with sterile PBS, and the biofilm cells were dislodged into recovery medium and enumerated as described above.
The method for rapid biofilm eradication ability of test antimicrobials alone and in combination against 48-h-old biofilms within two h exposure time included (1) choosing different concentrations of test antimicrobials to assess their potency in eradicating preformed biofilms of study organisms within two h. Then (2) the quantitative recovery from biofilms following exposure to the antimicrobial solutions for bacterial strains (FIGS. 6A-6C) and fungal strains (FIG. 7) was evaluated.

[2] = system: 48-h-old biofilms of bacterial and fungal strains; experiment: MBEC Assay, 24 h exposure (summary); assay type: cell-based; details: following 24 h of treatment
Protocol: A biofilm cultivation cell composition was provided. This fifth composition was created using an MBEC Assay® biofilm inoculator, consisting of a polystyrene lid with 96 downward-protruding pegs and a corresponding base used to grow biofilms. A standardized inoculum was diluted in an appropriate biofilm growth medium to achieve a viable cell count of 1.5 × 10^6 CFU/mL of bacterial cells or […] CFU/mL of fungal cells. Then, 150 µL of this inoculum was transferred into each appropriate well, and the peg lids were inserted into the microtiter plates. The plates were sealed with Parafilm and were incubated at optimum temperature for 48 h with slight rocking for bacteria and shaking at 200 rpm for fungal strains. After incubation, the peg lid was removed from the base and rinsed twice with sterile phosphate-buffered saline (PBS) for 2 min to remove loosely attached non-sessile cells. Before the antimicrobial challenge, the pegs in column 1 (n = 8) were considered the biofilm growth control; these pegs were removed from the lids, placed into 200 µL of recovery medium, and analyzed for starting biofilm cell numbers as described below. […] After the antimicrobial challenge, the pegs were rinsed twice with sterile PBS for 2 min and placed into a new 96-well plate containing 200 µL of recovery medium. The recovery plates were sealed with Parafilm, and biofilm cells were dislodged from the pegs by sonication for 30 min with a Branson 3510 bath sonicator. The biofilm cells in the recovery medium were serially diluted, and a drop dilution assay was performed to enumerate the viable cells. MBEC values were determined as the minimum concentration of antimicrobials that yielded a viable cell count at or lower than the 125 CFU/mL detection limit.

[3] = system: S. epidermidis SK9; experiment: Checkerboard titration, FICI; assay type: cell-based, Staphylococcus epidermidis
Protocol: (§1) A fourth composition and solution included tetrasodium EDTA with ethanol or chlorhexidine HCl. This fourth composition and solution were created using checkerboard titration methods using micro broth dilution in 96-well microtiter plates. The concentrations of antimicrobials used were based on previously determined MIC values. Briefly, 200 µL of two-fold dilutions of tetrasodium EDTA and ethanol or chlorhexidine HCl were prepared in MH or MH II broth with standardized cell suspension. […] Microtiter plates were incubated at 37° C. for 24 h, and the results were analyzed. Each test was performed in duplicate and included a growth control without adding any antimicrobials.

[4] = system: S. epidermidis SK9; experiment: Checkerboard titration, FMCI; assay type: cell-based, Staphylococcus epidermidis
Protocol: (§2) An assay was made using a minimum inhibitory concentration (MIC) and minimum bactericidal concentration (MBC) and minimum fungicidal concentration (MFC) determination. The MIC was determined by the micro broth dilution method in 96-well plates. Serial two-fold dilutions of tetrasodium EDTA (from 2% to 0.015%), ethanol (from 50% to 0.1%) and chlorhexidine HCl (from 100 µg/mL to 0.025 µg/mL) were prepared in MH broth with a final volume of 90 µL per well. A 10 µL containing 1 × 10^5 bacterial cells or 2 × 10^3 fungal cells were added to each well. The inoculated plates were covered with a lid, sealed with Parafilm, and incubated for 24 h at 37° C. with slight rocking on a tilting platform shaker. After incubation, the optical density at 600 nm (OD 600 ) of the cultures in each well was measured using an xMark™ Microplate Absorbance Spectrophotometer (Bio-Rad). […] MBCs and MFCs were determined by transferring 100 µL from each well with no apparent growth onto appropriate agar plates, followed by incubation for 24 h at 37° C.
as §1

[5] = system: E. coli SK2; experiment: Checkerboard titration, FMCI; assay type: cell-based, Escherichia coli; details: tetrasodium EDTA + chlorhexidine HCl
Protocol: as §2, §1

[6] = system: Escherichia coli ON29; experiment: Checkerboard titration, FICI; assay type: cell-based; details: tetrasodium EDTA + chlorhexidine HCl; E. coli ON29
Protocol: as §1

[7] = system: Proteus mirabilis ON153; experiment: Checkerboard titration, FICI; assay type: cell-based; details: P. mirabilis ON153
Protocol: as §1

[8] = system: Pseudomonas aeruginosa SK1; experiment: Checkerboard titration, FICI; assay type: cell-based; details: tetrasodium EDTA + chlorhexidine HCl; P. aeruginosa SK1
Protocol: as §1

[9] = system: Candida albicans SK4b; experiment: Checkerboard titration, FICI; assay type: cell-based; details: C. albicans SK4b
Protocol: as §1

[10] = system: Staphylococcus aureus ON89; experiment: Checkerboard titration, FICI; assay type: cell-based; details: S. aureus ON89
Protocol: as §1

[11] = system: Serratia marcescens SK2; experiment: Checkerboard titration, FICI; assay type: cell-based; details: tetrasodium EDTA + chlorhexidine HCl; S. marcescens SK2
Protocol: as §1

[12] = system: Staphylococcus epidermidis ON170; experiment: Checkerboard titration, FICI; assay type: cell-based; details: S. epidermidis ON170
Protocol: as §1

[13] = system: Stenotrophomonas maltophilia ON17; experiment: Checkerboard titration, FICI; assay type: cell-based; details: S. maltophilia ON17
Protocol: as §1

[14] = system: C. albicans ON47; experiment: Checkerboard titration, FICI; assay type: cell-based, Candida albicans
Protocol: as §1

[15] = system: C. albicans ON47; experiment: Checkerboard titration, FMCI; assay type: cell-based, Candida albicans
Protocol: as §2, §1

[16] = system: MRSA ON184; experiment: Checkerboard titration, FICI; assay type: cell-based, Staphylococcus aureus
Protocol: as §1

[17] = system: MRSA ON184; experiment: Checkerboard titration, FMCI; assay type: cell-based, Staphylococcus aureus
Protocol: as §2, §1

[18] = system: E. coli SK2; experiment: Checkerboard titration, FICI; assay type: cell-based, Escherichia coli; details: tetrasodium EDTA + chlorhexidine HCl
Protocol: as §1

[19] = system: Escherichia coli ON29; experiment: Checkerboard titration, FMCI; assay type: cell-based; details: tetrasodium EDTA + chlorhexidine HCl; E. coli ON29
Protocol: as §2, §1

[20] = system: Proteus mirabilis ON153; experiment: Checkerboard titration, FMCI; assay type: cell-based; details: P. mirabilis ON153
Protocol: as §2, §1

[21] = system: Pseudomonas aeruginosa SK1; experiment: Checkerboard titration, FMCI; assay type: cell-based; details: tetrasodium EDTA + chlorhexidine HCl; P. aeruginosa SK1
Protocol: as §2, §1

[22] = system: Candida albicans SK4b; experiment: Checkerboard titration, FMCI; assay type: cell-based; details: C. albicans SK4b
Protocol: as §2, §1

[23] = system: Staphylococcus aureus ON89; experiment: Checkerboard titration, FMCI; assay type: cell-based; details: S. aureus ON89
Protocol: as §2, §1

[24] = system: Serratia marcescens SK2; experiment: Checkerboard titration, FMCI; assay type: cell-based; details: S. marcescens SK2
Protocol: as §2, §1

[25] = system: Staphylococcus epidermidis ON170; experiment: Checkerboard titration, FMCI; assay type: cell-based; details: S. epidermidis ON170
Protocol: as §2, §1

[26] = system: Stenotrophomonas maltophilia ON17; experiment: Checkerboard titration, FMCI; assay type: cell-based; details: S. maltophilia ON17
Protocol: as §2, §1

[27] = system: Staphylococcus epidermidis SK9 biofilm; experiment: FBEC index, checkerboard dilution on biofilms; assay type: cell-based; details: tetrasodium EDTA + ethanol; S. epidermidis SK9 biofilm
Protocol: (§3) In step (4), microtiter plates are incubated at 37° C. for 24 h. then (6), after incubation, the bacterial and fungal cells were dislodged from the pegs into the recovery medium described above.
(§4) Three 10-µL aliquots, for a total of 30 µL from each well of recovery medium, were spotted on MH agar plates and incubated for 24 h at 37° C. […] The FBEC determination is a modification of the FICI.

[28] = system: Candida albicans SK4b biofilm; experiment: FBEC index, checkerboard dilution on biofilms; assay type: cell-based; details: tetrasodium EDTA + ethanol; C. albicans SK4b biofilm
Protocol: as §3, §4

[29] = system: C. albicans ON47 biofilm; experiment: FBEC index, checkerboard dilution on biofilms; assay type: cell-based, Candida albicans; details: tetrasodium EDTA + ethanol
Protocol: as §3, §4

[30] = system: Escherichia coli SK2 biofilm; experiment: FBEC index, checkerboard dilution on biofilms; assay type: cell-based; details: tetrasodium EDTA + ethanol; E. coli SK2 biofilm
Protocol: as §3, §4

[31] = system: MRSA ON184 biofilm; experiment: FBEC index, checkerboard dilution on biofilms; assay type: cell-based, Staphylococcus aureus; details: tetrasodium EDTA + ethanol
Protocol: as §3, §4

[32] = system: Staphylococcus aureus ON89 biofilm; experiment: FBEC index, checkerboard dilution on biofilms; assay type: cell-based; details: tetrasodium EDTA + ethanol; S. aureus ON89 biofilm
Protocol: as §3, §4

[33] = tetrasodium EDTA + chlorhexidine HCl

## [H]/N=C(\N/C(=N/[H])NCCCCCCNC(=N)NC(=N)Nc1ccc(Cl)cc1)Nc1ccc(Cl)cc1 [Chlorhexidine HCl, chlorhexidine HCl]
[1]
  Eradication of preformed biofilms: failed to eradicate
[2]
  Concentration alone able to eradicate all established biofilms: 100 µg/mL
[3]; [33]
  Concentration in combination giving FICI: 0.025 µg/mL
[4]; [33]
  Concentration in combination giving FMCI: 0.4 µg/mL
[5]
  Concentration in combination giving FMCI: 0.2 µg/mL
[6]
  Concentration in combination giving FICI: 0.2 µg/mL
[7]; [33]
  Concentration in combination giving FICI: 0.8 µg/mL
[8]
  Concentration in combination giving FICI: 0.8 µg/mL
[9]; [33]
  Concentration in combination giving FICI: 0.8 µg/mL
[10]; [33]
  Concentration in combination giving FICI: 0.1 µg/mL
[11]
  Concentration in combination giving FICI: 1.5 µg/mL
[12]; [33]
  Concentration in combination giving FICI: 0.05 µg/mL
[13]; [33]
  Concentration in combination giving FICI: 0.2 µg/mL
[14]; [33]
  Concentration in combination giving FICI: 0.8 µg/mL
[15]; [33]
  Concentration in combination giving FMCI: 1.6 µg/mL
[16]; [33]
  Concentration in combination giving FICI: 0.2 µg/mL
[17]; [33]
  Concentration in combination giving FMCI: 0.4 µg/mL
[18]
  Concentration in combination giving FICI: 0.1 µg/mL
[19]
  Concentration in combination giving FMCI: 0.2 µg/mL
[20]; [33]
  Concentration in combination giving FMCI: 1.6 µg/mL
[21]
  Concentration in combination giving FMCI: 1.6 µg/mL
[22]; [33]
  Concentration in combination giving FMCI: 0.8 µg/mL
[23]; [33]
  Concentration in combination giving FMCI: 0.2 µg/mL
[24]; [33]
  Concentration in combination giving FMCI: 1.6 µg/mL
[25]; [33]
  Concentration in combination giving FMCI: 0.4 µg/mL
[26]; [33]
  Concentration in combination giving FMCI: 0.4 µg/mL

## CCO [Ethanol, ethanol]
[1]
  Eradication of preformed biofilms: failed to eradicate
[2]
  Concentration alone able to eradicate all established biofilms: 5%
[3]; tetrasodium EDTA + ethanol
  Concentration in combination giving FICI: 0.4 % w/v
[27]
  FBEC (concentration in combination): 1.6 % w/v
[28]
  FBEC (concentration in combination): 1.6 % w/v
[4]; tetrasodium EDTA + ethanol
  Concentration in combination giving FMCI: 3.125 % w/v
[29]
  FBEC (concentration in combination): 1.6 % w/v
[7]; tetrasodium EDTA + ethanol
  Concentration in combination giving FICI: 1.6 % w/v
[9]; tetrasodium EDTA + ethanol
  Concentration in combination giving FICI: 1.6 % w/v
[10]; tetrasodium EDTA + ethanol
  Concentration in combination giving FICI: 0.4 % w/v
[12]; tetrasodium EDTA + ethanol
  Concentration in combination giving FICI: 0.4 % w/v
[13]; tetrasodium EDTA + ethanol
  Concentration in combination giving FICI: 0.4 % w/v
[30]
  FBEC (concentration in combination): 1.6 % w/v
[14]; tetrasodium EDTA + ethanol
  Concentration in combination giving FICI: 0.4 % w/v
[31]
  FBEC (concentration in combination): 1.6 % w/v
[15]; tetrasodium EDTA + ethanol
  Concentration in combination giving FMCI: 3.125 % w/v
[16]; tetrasodium EDTA + ethanol
  Concentration in combination giving FICI: 0.4 % w/v
[17]; tetrasodium EDTA + ethanol
  Concentration in combination giving FMCI: 3.125 % w/v
[32]
  FBEC (concentration in combination): 0.8 % w/v
[20]; tetrasodium EDTA + ethanol
  Concentration in combination giving FMCI: 6.25 % w/v
[22]; tetrasodium EDTA + ethanol
  Concentration in combination giving FMCI: 3.125 % w/v
[23]; tetrasodium EDTA + ethanol
  Concentration in combination giving FMCI: 3.125 % w/v
[24]; tetrasodium EDTA + ethanol
  Concentration in combination giving FMCI: 6.25 % w/v
[25]; tetrasodium EDTA + ethanol
  Concentration in combination giving FMCI: 1.6 % w/v
[26]; tetrasodium EDTA + ethanol
  Concentration in combination giving FMCI: 1.6 % w/v
